Reference: PMC12697290, “Identification of novel PTP1B inhibitor for the treatment of LPS-induced myocardial apoptosis: machine learning based virtual screening and biological evaluation” (Journal of Enzyme Inhibition and Medicinal Chemistry, 2025)

Experiments:
PTP1B [1] = target: T1, PTP1B (Homo sapiens, UniProt P18031); test: pNPP hydrolysis, absorbance at […] nm; type: biochemical; parameters: gene PTPN1; isolated enzyme
T1 sequence (P18031 1-435): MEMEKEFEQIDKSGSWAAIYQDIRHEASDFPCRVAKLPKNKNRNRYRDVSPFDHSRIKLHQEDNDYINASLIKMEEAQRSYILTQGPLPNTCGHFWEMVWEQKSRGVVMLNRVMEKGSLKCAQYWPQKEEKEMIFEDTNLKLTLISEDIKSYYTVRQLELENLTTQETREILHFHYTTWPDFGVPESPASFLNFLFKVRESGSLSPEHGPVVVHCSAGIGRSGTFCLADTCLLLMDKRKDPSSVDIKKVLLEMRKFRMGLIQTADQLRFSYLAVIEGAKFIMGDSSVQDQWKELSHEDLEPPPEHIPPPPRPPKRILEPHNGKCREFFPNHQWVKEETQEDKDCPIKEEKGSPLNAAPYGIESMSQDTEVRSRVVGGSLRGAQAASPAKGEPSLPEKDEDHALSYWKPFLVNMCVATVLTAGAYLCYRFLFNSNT

PTP1B [2] = target: T1, PTP1B; test: pNPP hydrolysis, absorbance at […] nm; type: biochemical; parameters: gene PTPN1; isolated enzyme; settings: 5 mM pNPP, 50 mM Hepes, 1 mM DTT, pH 7.0, 37 °C; 10 μM compound
TCPTP [3] = target: T2, TCPTP (Homo sapiens, UniProt P17706); test: phosphatase inhibition assay (protocol printed for PTP1B: pNPP, […] nm); type: biochemical; parameters: gene PTPN2; isolated enzyme
T2 sequence (P17706 1-415): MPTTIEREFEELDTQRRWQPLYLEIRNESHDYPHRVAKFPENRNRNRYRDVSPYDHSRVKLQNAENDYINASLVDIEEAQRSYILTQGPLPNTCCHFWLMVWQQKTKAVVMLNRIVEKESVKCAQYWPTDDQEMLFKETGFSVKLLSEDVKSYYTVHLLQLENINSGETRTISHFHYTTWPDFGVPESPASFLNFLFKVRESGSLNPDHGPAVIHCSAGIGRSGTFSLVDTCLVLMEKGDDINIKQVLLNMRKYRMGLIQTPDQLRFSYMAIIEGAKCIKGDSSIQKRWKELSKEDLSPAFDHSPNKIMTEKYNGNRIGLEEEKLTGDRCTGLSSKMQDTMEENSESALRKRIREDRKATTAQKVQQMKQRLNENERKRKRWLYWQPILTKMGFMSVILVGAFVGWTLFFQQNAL

TCPTP [4] = target: T2, TCPTP; test: cellular thermal shift assay (CETSA), Western blot; type: cell-based; parameters: gene PTPN2; endogenous protein in AC16 human cardiomyocytes, detected by Western blot (antibody 11214-1-AP); settings: AC16 cells
[5] = target: T3, acidic phosphatase (ACP1) (Homo sapiens, UniProt P24666); test: phosphatase inhibition assay (protocol printed for PTP1B: pNPP, […] nm); type: biochemical; settings: conditions not stated separately for ACP1
T3 construct: isolated enzyme
T3 sequence (P24666 2-158): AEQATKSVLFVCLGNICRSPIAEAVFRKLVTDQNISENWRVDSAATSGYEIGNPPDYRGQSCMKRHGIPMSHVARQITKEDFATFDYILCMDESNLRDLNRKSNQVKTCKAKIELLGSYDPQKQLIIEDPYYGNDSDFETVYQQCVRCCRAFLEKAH

PTP1B [6] = target: T1, PTP1B; test: cellular thermal shift assay (CETSA), Western blot; type: cell-based; parameters: gene PTPN1; endogenous protein in AC16 human cardiomyocytes, detected by Western blot (antibody 11334-1-AP); settings: AC16 cells

With `N#C/C(=C\c1ccc(OCC(=O)O)cc1)c1nc2ccccc2[nH]1` [PI-2] the IC50 (PTP1B [1]) was 4.1 ± 0.3 µM, the “inhibitory rate at 20 μM” value (PTP1B [2]) was 95.6% and the IC50 (TCPTP [3]) was 5.9 ± 2.4 µM. For the same molecule, the CETSA stabilisation (TCPTP [4]) was “PI-2 could effectively enhance the PTP1B and TCPTP stability in vitro”, the IC50 [5] was > 20 µM and the CETSA stabilisation (PTP1B [6]) was “PI-2 could effectively enhance the PTP1B and TCPTP stability in vitro”.
For `CO/N=C(\C(=O)N[C@@H]1C(=O)N2C(C(=O)O)=C(CSc3nc(=O)c(O)nn3C)CS[C@H]12)c1csc(N)n1` [PI-1], the “inhibitory rate at 20 μM” value (PTP1B [2]) was “compounds PI-1, PI-2 and PI-7 displayed a moderate to potent inhibitory activity against PTP1B”.
`O=C(O)COCC(=O)Nc1cc(SCC(O)CO)cc([N+](=O)[O-])c1` (centres unmarked) [PI-7] was tested, and the “inhibitory rate at 20 μM” value (PTP1B [2]) was “compounds PI-1, PI-2 and PI-7 displayed a moderate to potent inhibitory activity against PTP1B”.
